By IC50 is commonly meant the concentration at which inhibition is half-maximal. In general, logD refers to lipophilicity at a set pH, counting ionised and neutral species. For orientation: Papp means the rate of passage across a membrane or cell layer, normalised by area and donor concentration. Low readings indicate slow passage, high ones fast passage.

Data set [1] deals with T1, recombinant human transglutaminase 2 (Homo sapiens, UniProt P21980).
T1 construct: purchased Zedira T022
T1 sequence (P21980 1-687): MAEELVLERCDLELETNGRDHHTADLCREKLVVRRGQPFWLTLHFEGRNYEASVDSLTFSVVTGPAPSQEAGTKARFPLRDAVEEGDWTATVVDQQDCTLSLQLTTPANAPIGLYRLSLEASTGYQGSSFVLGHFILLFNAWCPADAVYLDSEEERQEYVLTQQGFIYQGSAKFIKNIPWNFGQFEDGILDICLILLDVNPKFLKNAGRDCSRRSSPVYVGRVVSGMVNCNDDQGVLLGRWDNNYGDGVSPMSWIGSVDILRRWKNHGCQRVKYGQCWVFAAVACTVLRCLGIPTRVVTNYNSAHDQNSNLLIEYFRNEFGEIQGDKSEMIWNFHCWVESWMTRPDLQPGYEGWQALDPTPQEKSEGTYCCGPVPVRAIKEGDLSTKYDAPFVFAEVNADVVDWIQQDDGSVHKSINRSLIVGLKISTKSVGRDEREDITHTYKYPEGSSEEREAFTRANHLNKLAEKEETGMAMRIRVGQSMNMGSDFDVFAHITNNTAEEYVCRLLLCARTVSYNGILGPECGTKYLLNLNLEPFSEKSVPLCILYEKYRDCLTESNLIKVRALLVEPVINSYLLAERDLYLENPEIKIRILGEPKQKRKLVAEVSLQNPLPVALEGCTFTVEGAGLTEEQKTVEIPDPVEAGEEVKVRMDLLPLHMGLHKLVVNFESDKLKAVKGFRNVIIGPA
Description: Transglutaminase assay (dansylcadaverine incorporation into dimethylcasein, DCC-assay). As to conditions: recombinant human TG2 10 nM, dansylcadaverine/dimethylcasein, 37° C. Type of data set: biochemical. Summed up:
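IC50 derived from fluorescence slope between 20 and 30 min (λex 330 nm, λem 500 nm, 37 °C), expressed relative to a 2% DMSO control. Reaction: 10 nM recombinant human TG2, 4 μM dimethylcasein, 16.7 μM dansylcadaverine, 10 mM CaCl2 and glutathione, pH 8.0.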

Data set [2] is described as follows: Log D shake flask method (octanol / PBS pH 7.4, HPLC). It counts as physicochemical. As to conditions: octanol/phosphate-buffered saline (PBS); octanol / PBS pH 7.4, shake flask. On the procedure:
In order to classify the inventive compounds according to their lipophilicity, Log D values (distribution coefficient) were determined by means of the well-established shake flask method, measuring the partition of a compound between an octanol and phosphate-buffered saline (PBS, pH 7.4) by HPLC.

Data set [3] is described as follows: Caco-2 permeability assay (CacoReady kit). Type of data set: in vitro ADME. As to conditions: human. Summed up:
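Compounds are tested on pre-formed Caco-2 barriers supplied as a ready-to-use kit, following the kit protocol, and the Papp value is derived to estimate intestinal absorption.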

The structures appear in SMILES notation.

On to `COC(=O)/C=C/CC[C@H](NC(=O)c1oc2ccccc2c1C)C(=O)Nc1cccn(CC(=O)NC23CC4(C)CC(C)(CC(C)(C4)C2)C3)c1=O` [III-92, (S,E)-methyl 7-(1-(2-(3,5,7-trimethyl-1-adamantylamino)-2-oxoethyl)-2-oxo-1,2-dihydropyridin-3-ylamino)-6-(3-methylbenzofuran-2-carboxamido)-7-oxohept-2-enoate], for which the 50% inhibitory concentration (IC50) in data set [1] was < 25 nM. This compound displayed a pH-dependent lipophilicity (logD) in data set [2] of 3 to 5. Moreover, in data set [3], the apparent permeability (Papp) fell in the range of 1 to 10 ×10⁻⁶ cm/s.
With `COC(=O)/C=C/CC[C@H](NC(=O)[C@@H]1CCCN1C(C)=O)C(=O)Nc1cccn(CC(=O)NC2C3CC4CC(C3)CC2C4)c1=O` (stereo partly drawn) [III-21, (S,E)-methyl 6-((S)-1-acetylpyrrolidine-2-carboxamido)-7-(1-(2-(2-adamantylamino)-2-oxoethyl)-2-oxo-1,2-dihydropyridin-3-ylamino)-7-oxohept-2-enoate], the IC50 in data set [1] is < 25 nM. Moreover, the logD in data set [2] was in the range of 1 to 3. In addition, in data set [3], the apparent permeability (Papp) was < 1 ×10⁻⁶ cm/s.
For `COC(=O)/C=C/CC[C@H](NC(=O)c1oc2ccccc2c1C)C(=O)Nc1cccn(CC(=O)NC23CC4CC(CC(O)(C4)C2)C3)c1=O` [III-50, (S,E)-methyl 7-(1-(2-(3-hydroxyadamantan-1-amino)-2-oxoethyl)-2-oxo-1,2-dihydropyridin-3-ylamino)-6-(3-methylbenzofuran-2-carboxamido)-7-oxohept-2-enoate] the same measures were 25 to 250 nM, 1 to 3 and < 1 ×10⁻⁶ cm/s.
Take `Cn1ccnc1C(=O)N[C@@H](CC/C=C/C(=O)c1ccccc1)C(=O)Nc1cccn(CC(=O)NC23CC(C2)C3)c1=O` [III-157, (S,E)-N-(1-(1-(2-(bicyclo[1.1.1]pentan-1-ylamino)-2-oxoethyl)-2-oxo-1,2-dihydropyridin-3-ylamino)-1,7-dioxo-7-phenylhept-5-en-2-yl)-1-methyl-1H-imidazole-2-carboxamide]: the IC50 in data set [1] lay within 250 to 1500 nM. Moreover, the pH-dependent lipophilicity (logD) in data set [2] was 1 to 3. For the same compound, the Papp in data set [3] is < 1 ×10⁻⁶ cm/s.
For `O=C(/C=C/CC[C@H](NC(=O)c1ccc2c(c1)NCCC2)C(=O)Nc1cccn(CC(=O)NC23CC(C2)C3)c1=O)NC1CCCCC1` [III-149, (S,E)-N7-(1-(2-(bicyclo[1.1.1]pentan-1-ylamino)-2-oxoethyl)-2-oxo-1,2-dihydropyridin-3-yl)-N1-cyclohexyl-6-(1,2,3,4-tetrahydroquinoline-7-carboxamido)hept-2-enediamide] the same measures were 250 to 1500 nM, 1 to 3 and < 1 ×10⁻⁶ cm/s.
As for `CN(C)C(=O)/C=C/CC[C@H](NC(=O)c1cncn1C)C(=O)Nc1cccn(CC(=O)NC2C3CC4CC(C3)CC2C4)c1=O` (stereo partly drawn) [III-76, (S,E)-N^7-(1-(2-(2-adamantylamino)-2-oxoethyl)-2-oxo-1,2-dihydropyridin-3-yl)-N^1,N^1-dimethyl-6-(1-methyl-1H-imidazole-5-carboxamido)hept-2-enediamide], the IC50 in data set [1] lay in the range of 25 to 250 nM. Moreover, the pH-dependent lipophilicity (logD) in data set [2] lay in the range of 1 to 3. The Papp in data set [3] was < 1 ×10⁻⁶ cm/s.
For `COC(=O)/C=C/CC[C@H](NC(=O)c1snnc1C)C(=O)Nc1cccn(CC(=O)N[C@@H]2C[C@@H]3CC[C@H]2C3)c1=O` [III-115, (S,E)-methyl 7-(1-(2-((1S,2R,4R)-bicyclo[2.2.1]heptan-2-ylamino)-2-oxoethyl)-2-oxo-1,2-dihydropyridin-3-ylamino)-6-(4-methyl-1,2,3-thiadiazole-5-carboxamido)-7-oxohept-2-enoate] the same measures were < 25 nM, 1 to 3 and < 1 ×10⁻⁶ cm/s.
Take `COC(=O)/C=C/CC[C@H](NC(=O)c1oc2ccccc2c1C)C(=O)Nc1cccn(CC(=O)NC23CC4CC(CC(Cl)(C4)C2)C3)c1=O` [III-52, (S,E)-methyl 7-(1-(2-(3-chloroadamantan-1-amino)-2-oxoethyl)-2-oxo-1,2-dihydropyridin-3-ylamino)-6-(3-methylbenzofuran-2-carboxamido)-7-oxohept-2-enoate]: the IC50 in data set [1] is < 25 nM. In data set [2], this compound yielded a pH-dependent lipophilicity (logD) of 3 to 5. Besides, the Papp in data set [3] was 1 to 10 ×10⁻⁶ cm/s.
Take `COC(=O)/C=C/CC[C@H](NC(=O)c1oc2ccccc2c1C)C(=O)Nc1cccn(CC(=O)NC2C3CC4CC2CC(C)(C4)C3)c1=O` (stereo partly drawn) [III-42, (S,E)-methyl 7-(1-(2-(5-methyladamantan-2-amino)-2-oxoethyl)-2-oxo-1,2-dihydropyridin-3-ylamino)-6-(3-methylbenzofuran-2-carboxamido)-7-oxohept-2-enoate]: in data set [1], the half-inhibitory concentration (IC50) is < 25 nM. Moreover, in data set [2], the log distribution coefficient (logD) lay within 3 to 5. The compound also came in with a Papp in data set [3] of 1 to 10 ×10⁻⁶ cm/s.
As to `CC(=O)/C=C/CC[C@H](NC(=O)c1ncn(C)n1)C(=O)Nc1cccn(CC(=O)NC2C3CCCC2CC3)c1=O` (stereo partly drawn) [III-159, N-((2S,E)-1-(1-(2-(bicyclo[3.2.1]octan-8-ylamino)-2-oxoethyl)-2-oxo-1,2-dihydropyridin-3-ylamino)-1,7-dioxooct-5-en-2-yl)-1-methyl-1H-1,2,4-triazole-3-carboxamide], in data set [1], the IC50 fell in the range of 250 to 1500 nM. Also, the logD in data set [2] is < 1. Besides, the Papp in data set [3] is < 1 ×10⁻⁶ cm/s.
For `COC(=O)/C=C/CC[C@H](NC(=O)c1cncnc1C)C(=O)Nc1cccn(CC(=O)NC2C3CC4CC2CC(C(=O)O)(C4)C3)c1=O` (stereo partly drawn) [III-136, (S,E)-methyl 7-(1-(2-(5-carboxy-2-aminoadamantane)-2-oxoethyl)-2-oxo-1,2-dihydropyridin-3-ylamino)-6-(4-methylpyrimidine-5-carboxamido)-7-oxohept-2-enoate] the same measures were 250 to 1500 nM, < 1 and < 1 ×10⁻⁶ cm/s.
Taken in the same sequence, the figures for `COC(=O)/C=C/CC[C@H](NC(=O)c1ncns1)C(=O)Nc1cccn(CC(=O)NC23CC(C2)C3)c1=O` [III-170, (S,E)-methyl 7-(1-(2-(bicyclo[1.1.1]pentan-1-ylamino)-2-oxoethyl)-2-oxo-1,2-dihydropyridin-3-ylamino)-7-oxo-6-(1,2,4-thiadiazole-5-carboxamido)hept-2-enoate] were 25 to 250 nM, < 1 and < 1 ×10⁻⁶ cm/s.
For `Cn1cncc1C(=O)N[C@@H](CC/C=C/S(C)(=O)=O)C(=O)Nc1cccn(CC(=O)NC2C3CC4CC(C3)CC2C4)c1=O` (stereo partly drawn) [III-100, (S,E)-N-(1-(1-(2-(2-adamantylamino)-2-oxoethyl)-2-oxo-1,2-dihydropyridin-3-ylamino)-6-(methylsulfonyl)-1-oxohex-5-en-2-yl)-1-methyl-1H-imidazole-5-carboxamide] the same measures were 25 to 250 nM, 1 to 3 and < 1 ×10⁻⁶ cm/s.
In the case of `COC(=O)/C=C/CC[C@H](NC(=O)c1snnc1C)C(=O)Nc1cccn(CC(=O)NC23CC4(C)CC(C)(CC(C)(C4)C2)C3)c1=O` [III-108, (S,E)-methyl 7-(1-(2-(3,5,7-trimethyl-1-adamantylamino)-2-oxoethyl)-2-oxo-1,2-dihydropyridin-3-ylamino)-6-(4-methyl-1,2,3-thiadiazole-5-carboxamido)-7-oxohept-2-enoate], in data set [1], the IC50 was < 25 nM. In data set [2], this compound gave a logD of 3 to 5. Besides, the apparent permeability (Papp) in data set [3] was < 1 ×10⁻⁶ cm/s.
Take `COC(=O)/C=C/CC[C@H](NC(=O)c1cc2cc(Br)ccc2s1)C(=O)Nc1cccn(CC(=O)NC2C3CC4CC(C3)CC2C4)c1=O` (stereo partly drawn) [III-6, (S,E)-methyl 6-(5-bromobenzo[b]thiophene-2-carboxamido)-7-(1-(2-(2-adamantylamino)-2-oxoethyl)-2-oxo-1,2-dihydropyridin-3-ylamino)-7-oxohept-2-enoate]: the concentration for half-maximal inhibition (IC50) in data set [1] was < 25 nM. Besides, the log distribution coefficient (logD) in data set [2] fell in the range of 3 to 5. For the same compound, in data set [3], the Papp lay in the range of 1 to 10 ×10⁻⁶ cm/s.
Taken in the same sequence, the figures for `COC(=O)/C=C/CC[C@H](NC(=O)c1cncn1C)C(=O)Nc1cccn(CC(=O)N[C@@H]2C[C@@H]3CC[C@H]2C3)c1=O` [III-58, (S,E)-methyl 7-(1-(2-((1S,2R,4R)-bicyclo[2.2.1]heptan-2-ylamino)-2-oxoethyl)-2-oxo-1,2-dihydropyridin-3-ylamino)-6-(1-methyl-1H-imidazole-5-carboxamido)-7-oxohept-2-enoate] were < 25 nM, 1 to 3 and < 1 ×10⁻⁶ cm/s.
Taken in the same sequence, the figures for `O=C(/C=C/CC[C@H](NC(=O)c1nc(Cl)sc1Cl)C(=O)Nc1cccn(CC(=O)NC23CC(C2)C3)c1=O)NCc1ccccc1` [III-154, (S,E)-N1-benzyl-N7-(1-(2-(bicyclo[1.1.1]pentan-1-ylamino)-2-oxoethyl)-2-oxo-1,2-dihydropyridin-3-yl)-6-(2,5-dichlorothiazole-4-carboxamido)hept-2-enediamide] were 250 to 1500 nM, 1 to 3 and 1 to 10 ×10⁻⁶ cm/s.

These data come from US20240317708A1, “INHIBITORS OF TRANSGLUTAMINASES” (ZEDIRA GMBH, priority 2021, published 2024).
